In patent publication US4512986A, “Progrestationally active steroids” (priority 1983, dated 1985):

Target: T1, Cytosol Androgen Receptor of the Castrate Adult Rat Ventral Prostate (Rattus norvegicus, UniProt P15207)
T1 construct: Several ventral prostate glands pooled for each assay; tissue Charles River (animals, strain CD); host or cells: ventral prostate cytosol of castrated adult male rats
T1 sequence (P15207 1-902): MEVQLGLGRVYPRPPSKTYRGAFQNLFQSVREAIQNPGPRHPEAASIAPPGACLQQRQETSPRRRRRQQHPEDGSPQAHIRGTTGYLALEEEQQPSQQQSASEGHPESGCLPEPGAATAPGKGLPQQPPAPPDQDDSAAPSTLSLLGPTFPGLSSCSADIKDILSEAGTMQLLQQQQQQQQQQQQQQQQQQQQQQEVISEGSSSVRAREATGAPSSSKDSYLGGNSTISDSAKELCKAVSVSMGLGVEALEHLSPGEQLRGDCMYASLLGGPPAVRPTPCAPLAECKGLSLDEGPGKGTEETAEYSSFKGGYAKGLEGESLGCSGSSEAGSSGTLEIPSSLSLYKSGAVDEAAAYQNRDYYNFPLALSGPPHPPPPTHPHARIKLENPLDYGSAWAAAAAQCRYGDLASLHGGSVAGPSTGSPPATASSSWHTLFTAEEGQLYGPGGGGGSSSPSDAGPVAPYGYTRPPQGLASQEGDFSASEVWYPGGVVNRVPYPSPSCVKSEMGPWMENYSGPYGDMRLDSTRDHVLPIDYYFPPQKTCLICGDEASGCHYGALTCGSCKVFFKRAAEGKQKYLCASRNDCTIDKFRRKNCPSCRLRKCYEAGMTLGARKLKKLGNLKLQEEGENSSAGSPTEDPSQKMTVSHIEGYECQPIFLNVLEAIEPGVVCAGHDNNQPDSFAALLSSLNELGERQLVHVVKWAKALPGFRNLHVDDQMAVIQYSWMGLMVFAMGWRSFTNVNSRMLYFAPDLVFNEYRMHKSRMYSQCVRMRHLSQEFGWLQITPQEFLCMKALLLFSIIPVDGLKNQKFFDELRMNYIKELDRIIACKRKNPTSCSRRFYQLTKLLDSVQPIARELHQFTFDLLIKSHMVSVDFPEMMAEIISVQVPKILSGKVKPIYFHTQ
Test: Relative binding affinity for androgen receptor (competition with 3H-dihydrotestosterone)
Design: species or system rat (Charles River CD)
Description: The specific conditions, reagents, etc. used to derive the data from Table 2 are as follows:
Animal Species. Adult male rat (Charles River CD).
Pretreatment. Castration 17-24 hour prior to sacrifice.
Tissue. Ventral prostate. Amount of tissue: 0.4 g/rat. Several ventral prostate glands pooled for each assay.
Buffer. 0.05M Tris HCl, 0.05M Trisbase; 1 mM EDTA; 0.15 mM Dithiothreitol.
Homogenization. Three five-second bursts with 30 second cooling periods between bursts using Brinkman Polytron Pt. 10 (3.5 setting).
Temperature. 0°-4° C. all steps.
Centrifugation. 45,000 rpm for 1 hr, 50 Ti rotor, Beckman L8-80 ultracentrifuge.
Radiolabel. 1,2-^3 H-Dihydrotesterone-25,00 cpm/0.1 ml.
Amounts of Addition. 0.1 ml cytosol, 0.1 ml ^3 H-dihydrotestosterone, 0.1 ml test compound, 0.3 ml buffer.
Incubation. 16-18 hours at 0°-4° C.
Concentrations. 1×10^-10 M to 1×10^-5 (7 concentrations).
Method. Charcoal adsorption method used to remove unbound radioactivity. Five-tenths ml dextran-coated charcoal (0.5% Norit A and 0.05% dextran T-70) added to all except total radioactivity tubes (0.5 ml buffer added), tubes vortexed […], allowed to sit 10 min and centrifuged 10 min at 2000 rpm in Beckman TJ-6 centrifuge at 0°-4° C.

Question: Which RBA (16-18 hours at 0°-4° C., 5α-dihydrotestosterone = 100) does the source give for `C#C[C@]1(C(C)=O)CC[C@H]2[C@@H]3CCC4=CC(=O)CC[C@]4(C)[C@H]3CC[C@@]21C` [17α-Ethynylprogesterone, 17α-ethynylprogesterone] here?
Answer: 0.09%

Question: And the “androgen receptor binding affinity / androgenicity, in words” value (male rat androgenic receptors)?
Answer: extremely low binding affinity for male rat androgenic receptors
